In patent US20240279278A1, “NMU RECEPTOR 2 AGONISTS” (Boehringer Ingelheim International GmbH, priority 2023, published 2024) one finds Ki data, which are given here for five compounds.

Residues, ends and D or L forms follow the SMILES beside them.

For one assay, the target named is T1, human NMUR1 receptor (Homo sapiens, UniProt Q9HB89).
T1 construct: host or cells: CHO-K1
T1 sequence (Q9HB89 24-426 limits assumed): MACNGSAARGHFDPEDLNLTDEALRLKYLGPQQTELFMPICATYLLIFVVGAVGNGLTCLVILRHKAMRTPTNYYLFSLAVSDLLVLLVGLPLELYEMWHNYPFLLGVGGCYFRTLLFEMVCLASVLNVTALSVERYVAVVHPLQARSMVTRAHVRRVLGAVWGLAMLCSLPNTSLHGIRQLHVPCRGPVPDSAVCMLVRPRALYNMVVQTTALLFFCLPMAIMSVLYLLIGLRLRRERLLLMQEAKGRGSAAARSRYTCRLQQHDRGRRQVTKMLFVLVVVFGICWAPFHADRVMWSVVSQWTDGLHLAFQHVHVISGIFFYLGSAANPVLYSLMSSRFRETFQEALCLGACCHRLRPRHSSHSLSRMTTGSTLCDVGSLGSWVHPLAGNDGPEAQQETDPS
In words: Radioligand binding competition assay (RLB), human NMUR1 receptor binding (SPA, [125I]-Neuromedin U-25). Conditions: CHO-K1 hNMUR1 cell membranes, 4 hours at RT. An excerpt:
Example 2: Radioligand Binding Competition Assay (RLB) Human NMUR1 Receptor Binding 1) Membranes The test is based on membranes prepared from a human NMUR1/Apoaequorin Stable Cell Line (Creative Biogene, Cat. No. CSC-RG1308). Cell Line Description: CHO-NMUR1 cell line is clonally-derived from a CHO-K1 cell line, which has been transfected with a bicistronic expression plasmid containing the sequence coding for the human neuromedin U receptor 1 (NM_006056.4, 180 to 1391). Mosaic-ID: CL16550614 Membrane preparation: Cells were broken by nitrogen cavitation (900 psi, 1 hour). Intact cells were removed by centrifugation (400 rcf, 10 minutes, 4° C.) before the crude membrane fraction was collected by ultracentrifugation (20.000 rcf, 1 hour, 4° C.). 2) Human NMUR1 Receptor Binding Assay (Radioligand: [125l]-Neuromedin U-25) In this Scintillation Proximity Assay (SPA) design, the membranes immobilize directly to the PVT-WGA-PEI type A beads (polyethyleneimine treated polyvinyltoluene beads coupled to wheatgerm agglutinin, Perkin Elmer) via interactions of wheat germ agglutinate and glycosylated membrane structures. Thereby the radioactively la-belled ligand, bound to NMUR1 receptors on the membrane, comes in close proximity to the solid scintillator of the PVT bead. Radioactive human neuromedin U-25 then stimulates the scintillant to emit light. In contrast, radioligand not bound to the receptor is too distant from the bead to elicit a signal. For the Scintillation Proximity Assay the CHO-K1 hNMUR1 cell membranes and SPA-beads are diluted to concentrations, which assure a robust signal to background ratio. The SPA incubation buffer consists of 25 mM Hepes (pH=7.0), 5 mM MgCl2, 1 mM CaCl2, 10 ug/mL Saponine and 0.1% bovine serum albumin and is used for all dilutions. Final assay setup in 96-well plate: 20 μL of 10× test compound dilutions+40 μL of 5× [125l]-Neuromedin U-25 (1× approx. 30 pM; 2000 μCi/mmol (μCi=microcurie))+60 μL membrane dilution (approx. 1.0 μg membrane protein)+80 μL SPA bead dilution (250 μg). The assay is incubated for 4 hours at RT, including controls for specific binding where no displacer is added and non-specific binding by adding unlabeled hNMU-25 at 100 nM. Bound radioactivity is determined by scintillation counting (MicroBeta Trilux 1450, Perkin Elmer, detection of 125I decay). […] The system assumes one binding site with no relevant radioligand depletion (<10%) and that the binding is reversible and at equilibrium. [formula] [formula]

Another assay has as its target human NMUR2 receptor (Homo sapiens, UniProt Q9GZQ4). In words: Radioligand binding competition assay (RLB), human NMUR2 receptor binding (SPA, [125I]-Neuromedin U-25). More on the design: host or cells: CHO-K1. To be noted: CHO-K1 hNMUR2 cell membranes, 4 hours at RT. An excerpt:
Example 1: Radioligand Binding Competition Assay (RLB) Human NMUR2 Receptor Binding
The test is based on membranes prepared from a Human NMUR2/Apoaequorin Stable Cell Line (Creative Biogene, Cat. No. CSC-RG1309).
Cell Line Description: CHO-NMUR2 cell line is clonally derived from a CHO-K1 cell line, which has been transfected with a bicistronic expression plasmid containing the sequence coding for the human neuromedin U receptor 2 (AF242874.1). MOSAIC-ID: CL16550616.
Membrane preparation: Cells were broken by nitrogen cavitation (900 psi, 1 hour). Intact cells were removed by centrifugation (400 rcf (relative centrifugal force), 10 minutes, 4° C.) before the crude membrane fraction was collected by ultracentrifugation (20.000 rcf, 1 hour, 4° C.).
2) Human NMUR2 Receptor Binding Assay (Radioligand: [125I]-Neuromedin U-25 (Human))
In this Scintillation Proximity Assay (SPA) design, the membranes immobilize directly to the PVT-WGA-PEI type A beads (polyethyleneimine treated polyvinyltoluene beads coupled to wheatgerm agglutinin, Perkin Elmer) via interactions of wheat germ agglutinate and glycosylated membrane structures. Thereby the radioactively la-belled ligand, bound to NMUR2 receptors on the membrane, comes in close proximity to the solid scintillator of the PVT bead. Radioactive human neuromedin U-25 then stimulates the scintillant to emit light. In contrast, radioligand not bound to the receptor is too distant from the bead to elicit a signal.
For the Scintillation Proximity Assay the CHO-K1 hNMUR2 cell membranes and SPA-beads are diluted to concentrations, which assure a robust signal to background ratio. The SPA incubation buffer consists of 25 mM Hepes (pH=7.0), 5 mM MgCl2, 1 mM CaCl2, 10 ug/mL Saponine and 0.1% bovine serum albumin and is used for all dilutions.
Final assay setup in 96-well plate: 20 μL of 10× test compound dilutions+40 μL of 5× [125l]-Neuromedin U-25 (1× approx. 30 pM; 2000 μCi/mmol)+60 μL membrane dilution (approx. 2.5 μg membrane protein)+80 μL SPA bead dilution (0.75 mg).
The assay is incubated for 4 hours at RT, including controls for specific binding where no displacer is added and non-specific binding by adding unlabeled hNMU-25 at 100 nM. Bound radioactivity is determined by scintillation counting (MicroBeta Trilux 1450, Perkin Elmer, detection of 125I decay). […] The system assumes one binding site with no relevant radioligand depletion (<10%) and that the binding is reversible and at equilibrium.

human NMUR2 receptor, sequence (Q9GZQ4 whole entry): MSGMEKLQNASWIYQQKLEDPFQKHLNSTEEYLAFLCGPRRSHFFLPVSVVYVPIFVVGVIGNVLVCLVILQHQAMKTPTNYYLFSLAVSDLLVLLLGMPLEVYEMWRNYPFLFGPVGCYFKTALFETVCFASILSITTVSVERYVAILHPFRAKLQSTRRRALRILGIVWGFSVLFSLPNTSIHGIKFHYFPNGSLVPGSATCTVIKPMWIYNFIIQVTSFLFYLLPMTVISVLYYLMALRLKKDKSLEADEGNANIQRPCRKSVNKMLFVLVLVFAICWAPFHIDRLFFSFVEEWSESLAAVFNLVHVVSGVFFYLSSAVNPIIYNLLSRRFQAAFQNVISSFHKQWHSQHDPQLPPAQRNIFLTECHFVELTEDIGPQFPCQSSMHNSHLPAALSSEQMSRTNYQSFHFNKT

Turning to `CCCC[C@H](NC(=O)[C@H](CC(C)C)N(C)C(=O)[C@H](Cc1ccccc1)NC(=O)[C@H](Cc1ccc(O)cc1)NC(=O)CN1CCN(CCNC(=O)CN(C)C(=O)CN(C)C(=O)CN(C)C(=O)CN(C)C(=O)CN(C)C(=O)CN(C)C(=O)CN(C)C(=O)CN(C)C(=O)CN(C)C(=O)CN(C)C(=O)CN(C)C(=O)CN(C)C(=O)CC[C@H](NC(=O)CC[C@H](NC(=O)CC[C@H](NC(=O)CCCCCCCCCCCCCCCCC(=O)O)C(=O)O)C(=O)O)C(=O)O)CC1)C(=O)N[C@@H](CCN)C(=O)N1CCC[C@H]1C(=O)N[C@@H](CCCNC(=N)N)C(=O)NCC(N)=O` [Compound 27, C18DA-gGlu3-Sar12-AEPipAc-Tyr-Phe-NMeLeu-Nle-Dbu-Pro-Arg-Gly-NH2], the figures for the inhibitory constant (Ki) at human NMUR1 receptor and at human NMUR2 receptor were over 10000 nM and 23.4 nM, respectively.
In the case of `CCCC[C@H](NC(=O)[C@H](CC(C)C)N(C)C(=O)[C@H](Cc1ccccc1)NC(=O)[C@H](Cc1ccc(O)cc1)NC(=O)CN1CCN(CCNC(=O)CN(C)C(=O)CN(C)C(=O)CN(C)C(=O)CN(C)C(=O)CN(C)C(=O)CN(C)C(=O)CN(C)C(=O)CN(C)C(=O)CN(C)C(=O)CN(C)C(=O)CN(C)C(=O)CN(C)C(=O)CN(C)C(=O)CN(C)C(=O)CN(C)C(=O)CC[C@H](NC(=O)CC[C@H](NC(=O)CC[C@H](NC(=O)CCCCCCCCCCCCCCCCC(=O)O)C(=O)O)C(=O)O)C(=O)O)CC1)C(=O)N[C@@H](CCCNC(=N)N)C(=O)N(C)[C@@H](C)C(=O)N[C@@H](CCCNC(=N)N)C(=O)NCC(N)=O` [Compound 11, C18DA-gGlu3-Sar15-AEPipAc-Tyr-Phe-NMeLeu-Nle-Arg-NMeAla-Arg-Gly-NH2] (HELM PEPTIDE1{[O=C(O)CCCCCCCCCCCCCCCCC(=O)[*:2]].[gGlu].[gGlu].[gGlu].[Sar].[Sar].[Sar].[Sar].[Sar].[Sar].[Sar].[Sar].[Sar].[Sar].[Sar].[Sar].[Sar].[Sar].[Sar].[O=C(CN1CCN(CCN[*:1])CC1)[*:2]].Y.F.[meL].[Nle].R.[meA].R.G.[am]}$$$$V2.0), the inhibition constant Ki at human NMUR1 receptor is over 10000 nM; at human NMUR2 receptor it was 76.3 nM.
Consider `CCCC[C@H](NC(=O)[C@H](CC(C)C)N(C)C(=O)[C@H](Cc1ccccc1)NC(=O)[C@H](Cc1ccc(O)cc1)NC(=O)CN1CCN(CCNC(=O)CN(C)C(=O)CN(C)C(=O)CN(C)C(=O)CN(C)C(=O)CN(C)C(=O)CN(C)C(=O)CN(C)C(=O)CN(C)C(=O)CN(C)C(=O)CN(C)C(=O)CN(C)C(=O)CN(C)C(=O)CN(C)C(=O)CN(C)C(=O)CN(C)C(=O)CC[C@H](NC(=O)CC[C@H](NC(=O)CC[C@H](NC(=O)CCCCCCCCCCCCCCCCCCC(=O)O)C(=O)O)C(=O)O)C(=O)O)CC1)C(=O)N[C@@H](CCN)C(=O)N1CCC[C@H]1C(=O)N[C@@H](CCCNC(=N)N)C(=O)NCC(N)=O` [Compound 42, C20DA-gGlu3-Sar15-AEPipAc-Tyr-Phe-NMeLeu-Nle-Dbu-Pro-Arg-Gly-NH2] (HELM PEPTIDE1{[O=C(O)CCCCCCCCCCCCCCCCCCC(=O)[*:2]].[gGlu].[gGlu].[gGlu].[Sar].[Sar].[Sar].[Sar].[Sar].[Sar].[Sar].[Sar].[Sar].[Sar].[Sar].[Sar].[Sar].[Sar].[Sar].[O=C(CN1CCN(CCN[*:1])CC1)[*:2]].Y.F.[meL].[Nle].[Dab].P.R.G.[am]}$$$$V2.0), for which the inhibition constant (Ki) on human NMUR1 receptor is over 10000 nM; at human NMUR2 receptor, 23.7 nM.
As for `CCCC[C@H](NC(=O)[C@H](CC(C)C)N(C)C(=O)[C@H](Cc1ccccc1)NC(=O)[C@H](Cc1ccc(O)cc1)NC(=O)CN1CCN(CCNC(=O)CN(C)C(=O)CN(C)C(=O)CN(C)C(=O)CN(C)C(=O)CN(C)C(=O)CN(C)C(=O)CN(C)C(=O)CN(C)C(=O)CN(C)C(=O)CN(C)C(=O)CN(C)C(=O)CN(C)C(=O)CN(C)C(=O)CN(C)C(=O)CN(C)C(=O)CC[C@H](NC(=O)CC[C@H](NC(=O)CC[C@H](NC(=O)CCCCCCCCCCCCCCCCC(=O)O)C(=O)O)C(=O)O)C(=O)O)CC1)C(=O)N[C@@H](CCCN)C(=O)N(C)[C@@H](C)C(=O)N[C@@H](CCCNC(=N)N)C(=O)NCC(N)=O` [Compound 22, C18DA-gGlu3-Sar15-AEPipAc-Tyr-Phe-NMeLeu-Nle-Orn-NMeAla-Arg-Gly-NH2] (HELM PEPTIDE1{[O=C(O)CCCCCCCCCCCCCCCCC(=O)[*:2]].[gGlu].[gGlu].[gGlu].[Sar].[Sar].[Sar].[Sar].[Sar].[Sar].[Sar].[Sar].[Sar].[Sar].[Sar].[Sar].[Sar].[Sar].[Sar].[O=C(CN1CCN(CCN[*:1])CC1)[*:2]].Y.F.[meL].[Nle].[Orn].[meA].R.G.[am]}$$$$V2.0), the inhibition constant Ki was over 10000 nM at human NMUR1 receptor and 45.8 nM at human NMUR2 receptor.
Consider `CCCC[C@H](NC(=O)[C@H](CC(C)C)N(C)C(=O)[C@H](Cc1ccccc1)NC(=O)[C@H](Cc1ccc(O)cc1)NC(=O)CN1CCN(CCNC(=O)CN(C)C(=O)CN(C)C(=O)CN(C)C(=O)CN(C)C(=O)CN(C)C(=O)CN(C)C(=O)CN(C)C(=O)CN(C)C(=O)CN(C)C(=O)CN(C)C(=O)CN(C)C(=O)CN(C)C(=O)CN(C)C(=O)CN(C)C(=O)CN(C)C(=O)CC[C@H](NC(=O)CC[C@H](NC(=O)CC[C@H](NC(=O)CCCCCCCCCCCCCCCCC(=O)O)C(=O)O)C(=O)O)C(=O)O)CC1)C(=O)N[C@@H](CCCNC(=N)N)C(=O)N1CCC[C@H]1C(=O)N[C@@H](CCCNC(=N)N)C(=O)NCC(N)=O` [Compound 7, C18DA-gGlu3-Sar15-AEPipAc-Tyr-Phe-NMeLeu-Nle-Arg-Pro-Arg-Gly-NH2] (HELM PEPTIDE1{[O=C(O)CCCCCCCCCCCCCCCCC(=O)[*:2]].[gGlu].[gGlu].[gGlu].[Sar].[Sar].[Sar].[Sar].[Sar].[Sar].[Sar].[Sar].[Sar].[Sar].[Sar].[Sar].[Sar].[Sar].[Sar].[O=C(CN1CCN(CCN[*:1])CC1)[*:2]].Y.F.[meL].[Nle].R.P.R.G.[am]}$$$$V2.0), for which the Ki on human NMUR1 receptor came to 3740 nM; on human NMUR2 receptor it was 22.8 nM.
